# Measured values: ChEMBL document CHEMBL1126345, “Synthesis of biological evaluation of 4-deshydroxy-4-methyl etoposide and teniposide analogs” (Bioorg Med Chem Lett, 1992)
# The source made the active and inactive calls. The calls are words filed in the database; no cut-off is given here.
# Assays:
# [1] = target: DNA topoisomerase II (Homo sapiens) (UniProt P11388+Q02880); test: Double strand DNA breakage reflecting stabilization of DNA topoisomerase II intermediate by the compound expressed in terms of ng of DNA/unit of enzyme/mM of drug
# P388 [2] = test: In vivo antitumor activity against Murine P388 murine leukemia cell line up to a conc of 100 mg/kg; IA - Totally inactive; assay type: functional, organism-based; set-up: dose 100 mg/kg; conditions: Mus musculus
# P388 [3] = test: In vivo antitumor activity against Murine P388 murine leukemia cell line up to a conc of 100 mg/kg; A - Active; assay type: functional, organism-based; set-up: dose 100 mg/kg; conditions: Mus musculus
# HCT cell line = test: In vitro inhibition of compound against HCT cell lines was determined after 72 hr of administration of the dose; assay type: functional, cell-based; conditions: Homo sapiens
# HCT-116 = test: In vitro inhibition of compound against HCT/VP35 cell lines was determined after 72 hr of administration of the dose; assay type: functional, cell-based; conditions: Homo sapiens, HCT-116, 72 h
# [4] = Resistance ratio was determined as the ratio of resistance to cytotoxicity against human colon tumor (HCT116) to that of (HCT/VP35) cells grown in culture; assay type: functional
SMILES,DSB [1],Activity (P388 [2]),further results
COc1cc([C@@H]2c3cc4c(cc3[C@@H](O[C@@H]3O[C@@H]5CO[C@@H](c6cccs6)O[C@H]5[C@H](O)[C@H]3O)[C@H]3COC(=O)[C@H]23)OCO4)cc(OC)c1O,346,,
COc1cc([C@@H]2c3cc4c(cc3[C@@H](O[C@@H]3O[C@@H]5CO[C@@H](c6cccs6)O[C@H]5[C@H](O)[C@H]3O)[C@H]3COC(=O)[C@H]23)OCO4)cc(OC)c1C,49,inactive,
C=CCc1c(OC)cc([C@@H]2c3cc4c(cc3[C@@H](O[C@@H]3O[C@@H]5CO[C@@H](c6cccs6)O[C@H]5[C@H](O)[C@H]3O)[C@H]3COC(=O)[C@H]23)OCO4)cc1OC,42,,
C=CCc1c(OC)cc([C@@H]2c3cc4c(cc3[C@@H](O[C@@H]3O[C@@H]5CO[C@@H](C)O[C@H]5[C@H](O)[C@H]3O)[C@H]3COC(=O)[C@H]23)OCO4)cc1OC,17,inactive,

# Second part, led by results:
DSB [1],SMILES,Activity (P388 [2]),further results
17,C=Cc1c(OC)cc([C@@H]2c3cc4c(cc3[C@@H](O[C@@H]3O[C@@H]5CO[C@@H](C)O[C@H]5[C@H](O)[C@H]3O)[C@H]3COC(=O)[C@H]23)OCO4)cc1OC,inactive,
26,COc1cc([C@@H]2c3cc4c(cc3[C@@H](O[C@@H]3O[C@@H]5CO[C@@H](C)O[C@H]5[C@H](O)[C@H]3O)[C@H]3COC(=O)[C@H]23)OCO4)cc(OC)c1C,,Activity (P388 [3]): Active; IC50 (HCT cell line): 5.7 µg/mL; IC50 (HCT-116): 5.7 µg/mL
27,COc1cc(OC)cc([C@@H]2c3cc4c(cc3[C@@H](O[C@@H]3O[C@@H]5CO[C@@H](C)O[C@H]5[C@H](O)[C@H]3O)[C@H]3COC(=O)[C@H]23)OCO4)c1,,Resistance ratio [4]: 0.5
305,COc1cc([C@@H]2c3cc4c(cc3[C@@H](O[C@@H]3O[C@@H]5CO[C@@H](C)O[C@H]5[C@H](O)[C@H]3O)[C@H]3COC(=O)[C@H]23)OCO4)cc(OC)c1O,,
